O=c1c2ccccc2nc2n1CCc1c-2[nH]c2ccccc12
solubility (mole fraction)
Conditions	283.2 K	288.2 K	293.2 K	298.2 K	303.2 K	313.2 K	323.2 K
in acetone	0.000735	–	0.000972	–	0.00129	0.00149	0.00196
in chloroform	0.000287	–	0.000511	–	0.000922	0.00211	0.00485
in cyclohexane	6.24e-06	–	1.14e-05	–	1.73e-05	2.52e-05	3.78e-05
in dichloromethane	0.00142	0.00162	0.00182	0.00196	0.00224	–	–
in diethyl ether	0.00024	0.000273	0.000313	0.000396	0.000454	–	–
in ethanol	9.75e-05	–	0.000143	–	0.000203	0.000279	0.000394
in ethyl acetate	0.00104	–	0.00123	–	0.00153	0.00195	0.00255
in isopropanol	7.94e-05	–	0.000127	–	0.000192	0.000292	0.000459
in methanol	6.61e-05	–	8.18e-05	–	0.000117	0.000161	0.000229
in n-butanol	0.000186	–	0.000266	–	0.000369	0.000577	0.000955
in n-hexane	6.17e-06	–	1.21e-05	–	1.62e-05	2.63e-05	3.97e-05
in n-pentane	4.31e-06	6.89e-06	9.67e-06	1.53e-05	2.47e-05	–	–
